“Also recorded” adds a separate entry of the source.
Assays:
TGR5 = target: T1, TGR5 (Homo sapiens, UniProt Q8TDU6); experiment: TGR5 luciferase reporter (pCRE-luc) / cAMP assay in HEK293 cells overexpressing TGR5; format: cell-based
T1 construct: expressed in transfected cells
T1 sequence (Q8TDU6 1-330): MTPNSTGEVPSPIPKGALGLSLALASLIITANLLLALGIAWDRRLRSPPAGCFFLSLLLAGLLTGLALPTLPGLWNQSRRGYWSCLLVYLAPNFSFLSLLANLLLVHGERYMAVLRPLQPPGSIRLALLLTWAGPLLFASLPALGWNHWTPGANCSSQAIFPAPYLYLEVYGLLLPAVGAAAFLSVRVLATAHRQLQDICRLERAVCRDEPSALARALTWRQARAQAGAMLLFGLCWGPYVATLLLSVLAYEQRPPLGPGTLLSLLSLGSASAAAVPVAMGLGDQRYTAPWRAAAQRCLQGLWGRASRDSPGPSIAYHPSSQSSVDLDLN
Protocol: FIG. 1(A-C): FIG. 1(A) Chemical structure of berberine. FIG. 1(B) HEK293 cells lacking or stably-overexpressing TGR5 were treated with increasing doses of berberine for 16 h. TGR5-reporting activity was evaluated by luciferase assay (n=8). FIG. 1(C) The ability of berberine to activate TGR5 and FXR was evaluated in comparison to the synthetic FXR agonist GW4064. Ligands were used at a concentration of […] (n=4). Statistical analysis was performed using paired t-test. **p<0.05, ***p<0.001.
FIG. 2(A) HEK293 cells lacking or overexpressing TGR5 were treated with increasing doses of berberine for 16 hours and TGR5-reporting activity was evaluated using luciferase assays. FIG. 2(B) Ability of berberine to activate metabolic nuclear receptors was evaluated in comparison to native ligands. All ligands were used at a 10 μM concentration.
To potentially identify selective TGR5 modulators via a novel strategy, we synthesized and screened a focused chemical compounds library to search for derivatives that have higher affinity and/or higher selectivity to effectively modulate TGR5 activity in vivo. A focused small chemical compound library was evaluated in in vitro TGR5 assays to search for berberine-derived agonists that have higher affinity, potency, and/or higher selectivity for TGR5. The receptor binding assay was performed by measuring the level of cyclic AMP (cAMP) using TR-FRET (time-resolved fluorescence resonance energy transfer) assay. The level of intracellular cAMP was determined with Lance kit (PerkinElmer). Lithocholic acid was used as control ligand. Z′ factor was used to validate assays. Non-linear regression curves, without constraints, was performed by using four parameter equation and GraphPad Prism Software (GraphPad Inc.) to obtain the EC50 values. All drugs tested positive with TR-FRET for TGR5 binding affinities were evaluated in cell-based assays, using HEK293 cells stably over expressing human TGR5 transfected with the cAMP-sensitive reporter plasmid pCRE-Luc. Compounds were initially tested at doses of […] and the relative fold activation on TGR5 was determined. […]

db/db mice = details: mouse, in vivo; cited from earlier work
FXR-RXR heterodimers = target: T2, FXR-RXR heterodimers (Homo sapiens, UniProt Q96RI1); experiment: Specific DNA binding by FXR-RXR heterodimers in vitro; format: biochemical; details: data not shown
T2 sequence (Q96RI1 1-486): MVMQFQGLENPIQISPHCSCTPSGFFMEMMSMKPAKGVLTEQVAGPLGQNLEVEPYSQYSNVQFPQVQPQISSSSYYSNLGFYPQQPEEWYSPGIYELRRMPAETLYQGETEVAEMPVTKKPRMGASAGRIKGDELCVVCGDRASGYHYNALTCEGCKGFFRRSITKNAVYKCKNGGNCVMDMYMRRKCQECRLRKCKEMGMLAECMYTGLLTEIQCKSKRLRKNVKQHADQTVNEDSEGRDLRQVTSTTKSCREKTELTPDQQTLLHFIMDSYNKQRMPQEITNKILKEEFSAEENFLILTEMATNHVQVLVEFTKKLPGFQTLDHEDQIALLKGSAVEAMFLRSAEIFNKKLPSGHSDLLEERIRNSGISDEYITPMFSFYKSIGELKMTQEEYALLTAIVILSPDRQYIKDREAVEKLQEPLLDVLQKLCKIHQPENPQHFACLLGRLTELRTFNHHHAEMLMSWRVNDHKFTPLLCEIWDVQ
T2 sequence (P19793 1-462 partner): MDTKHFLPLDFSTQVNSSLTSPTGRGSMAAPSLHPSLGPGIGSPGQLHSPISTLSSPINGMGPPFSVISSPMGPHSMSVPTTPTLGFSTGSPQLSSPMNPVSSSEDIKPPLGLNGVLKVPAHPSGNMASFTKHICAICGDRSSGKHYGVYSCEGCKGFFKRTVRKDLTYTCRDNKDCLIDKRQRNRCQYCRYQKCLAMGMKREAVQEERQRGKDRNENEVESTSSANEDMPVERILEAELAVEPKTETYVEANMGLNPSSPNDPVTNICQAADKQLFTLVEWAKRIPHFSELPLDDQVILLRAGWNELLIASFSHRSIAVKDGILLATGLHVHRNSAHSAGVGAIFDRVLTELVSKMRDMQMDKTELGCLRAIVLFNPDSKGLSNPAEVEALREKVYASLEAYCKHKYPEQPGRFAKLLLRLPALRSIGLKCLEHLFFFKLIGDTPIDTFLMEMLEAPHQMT

SMILES: COc1ccc2cc3[n+](cc2c1OC)CCc1cc2c(cc1-3)OCO2 [berberine]
- TGR5-reporting effect in cells lacking TGR5 (TGR5; HEK293 cells lacking TGR5): lost
- TGR5 activation (TGR5; HEK293 cells overexpressing TGR5, 16 h): is a ligand for the G protein-coupled receptor TGR5; also recorded: can activate the bile acid receptor TGR5
- EC50 (TGR5; unpublished data, read-out: TGR5 agonist EC50): 460 nM
- Metabolic properties in db/db mice (db/db mice): insulin sensitizing as well as weight- and lipid-lowering properties
- Specific DNA binding by FXR-RXR heterodimers (FXR-RXR heterodimers): did not affect specific DNA binding

Reference: patent publication US10703761B2, “Bile acid receptor modulators and methods of use thereof” (City of Hope, priority 2016, dated 2020)
